Patent US20260224503A1, “METHOD FOR PRODUCING PARTICLE, AND PARTICLE PRODUCED BY THE METHOD AND MEDICAMENT” (Ricoh Company, Ltd., priority 2018, published 2026)

Experiments:
[1] = Dissolution of diclofenac, dissolution test first liquid (pH 1.2); format: physicochemical
Description: (§1) Specifically, The Japanese Pharmacopoeia dissolution test first solution (1,000 mL of a liquid prepared by dissolving 2.0 g of sodium chloride and 7.0 mL of hydrochloric acid in water, pH 1.2) and dissolution test second solution (50 mL of phosphate buffer solution, pH 6.8 (a liquid prepared by mixing water with a liquid, which had been prepared by dissolving 3.4 g of potassium dihydrogen phosphate and 3.55 g of anhydrous disodium hydrogen phosphate in water to give 1,000 mL, at the mixing ratio of 1:1, pH 6.8)) were used as the test liquids, and the test was performed at 37±0.5 degrees Celsius and at the rotational speed of 50 rpm.

[2] = Dissolution of diclofenac, dissolution test second liquid (pH 6.8); format: physicochemical; details: for Diclofenac concentration pH 6.8: 2 mg diclofenac, 37 degrees Celsius, 50 rpm
Description: as §1

O=C(O)Cc1ccccc1Nc1c(Cl)cccc1Cl [diclofenac bulk powder, diclofenac]
dissolution of diclofenac, in words [1]: prompt elusion | Diclofenac concentration pH 6.8 ([2]; collection time 0 min): 0 μg/mL | Diclofenac concentration pH 6.8 ([2]; collection time 10 min): 20.92 ± 0.66 μg/mL | Diclofenac concentration pH 6.8 ([2]; collection time 20 min): 19.83 ± 0.74 μg/mL | Diclofenac concentration pH 6.8 ([2]; collection time 30 min): 20.07 ± 0.59 μg/mL | Diclofenac concentration pH 6.8 ([2]; collection time 40 min): 19.97 ± 0.22 μg/mL | Diclofenac concentration pH 6.8 ([2]; collection time 60 min): 20.42 ± 0.46 μg/mL | Diclofenac concentration pH 6.8 ([2]; collection time 90 min): 20.21 ± 0.54 μg/mL | Diclofenac concentration pH 6.8 ([2]; collection time 120 min): 20.45 ± 0.69 μg/mL | dissolution of diclofenac, in words ([2]; dissolution test second liquid (pH 6.8)): sustained release
